In patent publication US4877619A, “Liposomal vesicles for intraperitoneal administration of therapeutic agents” (priority 1987, dated 1989):
Read-outs that look alike come from different tables or passages of the source.

Key:
[1] = format: physicochemical
Protocol: 3.9 ml of the Na-IBF solution is injected into each flask containing lipid film. The flasks are vortex-stirred for 40 to 60 minutes in a 65° C. water bath under nitrogen. (The nitrogen purge is first passed through a 0.22 micron filter.) To the contents of each flask is added sterile, pyrogen-free phosphate buffered saline, and the flasks are centrifuged for 6 to 10 minutes at 15,000 rpm. This washing procedure is repeated for a total of five times to remove unencapsulated Na-IBF. The contents of the flasks are then combined and PBS (5 mM PO4^3- in 0.15 N NaCl) is added to a total of 32 ml. The liposome suspension thus produced comprises ILDVs of about 1 micron or larger in size suspended in the PBS.

[2] = rat, in vivo, ip
Protocol: At the times indicated in the table, the animals were anesthetized, exsanguinated and the peritoneal cavities lavaged three time with 20 ml phosphate-buffered saline. The lavage fluid was pooled and centrifuged at low speed. "Peritoneal fluid" refers to fluid lavaged and pooled from the peritoneal cavity and contains small sized vesicles. "Peritoneal pellet" refers to the pelleted portion of the lavaged peritoneal fluid, and contains cellular matter (predominately peritoneal macrophage) and large vesicles. The remaining tissues were collected, washed, blotted, weighed and distributed into tubes for gamma counting.

Feces ([2]; 1 h) [% Inj. Dose]	TOTAL ([2]; 1 h) [% Inj. Dose]	Urine ([2]; 1 h) [% Inj. Dose]	Feces ([2]; 2 h)	TOTAL ([2]; 2 h) [% Inj. Dose]	Urine ([2]; 2 h) [% Inj. Dose]	Feces ([2]; 6 h) [% Inj. Dose]	TOTAL ([2]; 6 h) [% Inj. Dose]	Urine ([2]; 6 h) [% Inj. Dose]	Feces ([2]; 24 h) [% Inj. Dose]	TOTAL ([2]; 24 h) [% Inj. Dose]	Urine ([2]; 24 h) [% Inj. Dose]	Compound	Storage stability of liposome suspension [1]	Clearance after intraperitoneal injection [2]
–	–	–	–	–	–	–	–	–	–	–	–	Sodium Ibuprofenate	storage-stable for a period of several months	–
4.6	32.58	19	.02 % Inj. Dose	76.73	73	7.6	71.27	60.2	16.83	33.91	14.05	O=C([O-])CN(CCN(CC(=O)[O-])CC(=O)[O-])CC(=O)[O-].[111In+3] [^111 In-EDTA, Indium-III chelated to ethylenediamine tetracetic acid]	–	rapid clearance from the peritoneal cavity and from the whole body
